Test results published in ChEMBL document CHEMBL1143265, “Discovery of thiophene inhibitors of polo-like kinase” (Bioorg Med Chem Lett, 2009).

How the values were obtained:
[1] = biological target: Serine/threonine-protein kinase PLK1 (Homo sapiens, UniProt P53350); experiment: Inhibition of PLK1 expressed in baculovirus-infected Trichoplusia-ni cells by scintillation proximity assay
HCT-116 = experiment: Antiproliferative activity against human HCT116 cells after 3 days by methylene blue stain technique; format: functional, cell-based; conditions: HCT-116, 72 h
[2] = Oral bioavailability in mouse at 10 mg/kg; format: ADME, organism-based; conditions: in vivo
NCI-H460 = experiment: Antiproliferative activity against human H460 cells after 3 days by methylene blue stain technique; format: functional, cell-based; conditions: NCI-H460, 72 h
[3] = biological target: Vascular endothelial growth factor receptor 3 (Homo sapiens, UniProt P35916); experiment: Inhibition of VEGFR3
MCF7 = experiment: Antiproliferative activity against human MCF7 cells after 3 days by methylene blue stain technique; format: functional, cell-based; conditions: MCF7, 72 h
[4] = Volume of distribution at steady state in mouse at 6.7 mg/kg, iv; format: ADME, organism-based; set-up: dose 6.7 mg/kg, route intravenous; conditions: in vivo, read-out: Vdss
[5] = biological target: Epidermal growth factor receptor (Homo sapiens, UniProt P00533); experiment: Inhibition of EGFR
[6] = AUC in mouse at 10 mg/kg, po; format: ADME, organism-based; set-up: dose 10 mg/kg, route oral; conditions: plasma
NCI-N87 = experiment: Antiproliferative activity against human NCI-N87 cells after 3 days by methylene blue stain technique; format: functional, cell-based; conditions: NCI-N87, 72 h
RKO = experiment: Antiproliferative activity against human RKO cells after 3 days by methylene blue stain technique; format: functional, cell-based; conditions: 72 h
[7] = biological target: Mitogen-activated protein kinase 14 (Homo sapiens, UniProt Q16539); experiment: Inhibition of p38alpha
HN5 = experiment: Antiproliferative activity against human HN5 cells after 3 days by methylene blue stain technique; format: functional, cell-based; conditions: HN5, 72 h
[8] = biological target: Proto-oncogene tyrosine-protein kinase Src (Homo sapiens, UniProt P12931); experiment: Inhibition of Src
A549 = experiment: Antiproliferative activity against human A549 cells after 3 days by methylene blue stain technique; format: functional, cell-based; conditions: A549, 72 h
[9] = Inhibition of GSK3
[10] = Clearance in mouse at 6.7 mg/kg, iv; format: ADME, organism-based; set-up: dose 6.7 mg/kg, route intravenous; conditions: in vivo
PC-3 = experiment: Antiproliferative activity against human PC3 cells after 3 days by methylene blue stain technique; format: functional, cell-based; conditions: PC-3, 72 h

Chain of Serine/threonine-protein kinase PLK1 (P53350 whole entry): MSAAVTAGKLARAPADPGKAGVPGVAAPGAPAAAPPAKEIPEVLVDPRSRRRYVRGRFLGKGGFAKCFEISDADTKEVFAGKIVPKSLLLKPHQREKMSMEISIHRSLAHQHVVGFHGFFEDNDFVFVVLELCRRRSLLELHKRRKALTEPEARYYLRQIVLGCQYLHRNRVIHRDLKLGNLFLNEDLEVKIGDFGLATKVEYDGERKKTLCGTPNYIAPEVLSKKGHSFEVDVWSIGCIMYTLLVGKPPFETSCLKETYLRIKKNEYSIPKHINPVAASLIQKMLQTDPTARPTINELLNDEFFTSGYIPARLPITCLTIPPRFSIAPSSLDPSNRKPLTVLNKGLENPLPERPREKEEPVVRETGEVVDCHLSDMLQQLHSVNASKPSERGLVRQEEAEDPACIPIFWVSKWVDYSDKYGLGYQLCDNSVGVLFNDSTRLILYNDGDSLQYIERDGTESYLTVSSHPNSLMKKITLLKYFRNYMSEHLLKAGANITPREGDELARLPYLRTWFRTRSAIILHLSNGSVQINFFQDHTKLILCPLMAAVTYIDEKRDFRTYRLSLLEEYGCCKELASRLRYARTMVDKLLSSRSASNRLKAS
Chain of Proto-oncogene tyrosine-protein kinase Src (P12931 2-536 limits assumed): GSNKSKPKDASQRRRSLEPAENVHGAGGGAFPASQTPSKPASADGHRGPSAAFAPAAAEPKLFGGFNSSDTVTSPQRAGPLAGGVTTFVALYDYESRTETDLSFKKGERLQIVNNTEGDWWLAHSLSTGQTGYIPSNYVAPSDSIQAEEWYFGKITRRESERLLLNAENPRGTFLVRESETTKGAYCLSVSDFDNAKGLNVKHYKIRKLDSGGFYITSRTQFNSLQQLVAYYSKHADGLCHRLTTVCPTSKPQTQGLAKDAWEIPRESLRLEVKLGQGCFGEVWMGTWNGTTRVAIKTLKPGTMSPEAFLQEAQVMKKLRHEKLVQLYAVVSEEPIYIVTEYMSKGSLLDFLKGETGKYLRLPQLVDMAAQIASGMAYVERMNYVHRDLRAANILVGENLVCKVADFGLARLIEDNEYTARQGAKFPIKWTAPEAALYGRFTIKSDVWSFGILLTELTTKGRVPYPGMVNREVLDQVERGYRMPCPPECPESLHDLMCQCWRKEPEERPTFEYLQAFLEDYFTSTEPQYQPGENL
Chain of Epidermal growth factor receptor (P00533 whole entry): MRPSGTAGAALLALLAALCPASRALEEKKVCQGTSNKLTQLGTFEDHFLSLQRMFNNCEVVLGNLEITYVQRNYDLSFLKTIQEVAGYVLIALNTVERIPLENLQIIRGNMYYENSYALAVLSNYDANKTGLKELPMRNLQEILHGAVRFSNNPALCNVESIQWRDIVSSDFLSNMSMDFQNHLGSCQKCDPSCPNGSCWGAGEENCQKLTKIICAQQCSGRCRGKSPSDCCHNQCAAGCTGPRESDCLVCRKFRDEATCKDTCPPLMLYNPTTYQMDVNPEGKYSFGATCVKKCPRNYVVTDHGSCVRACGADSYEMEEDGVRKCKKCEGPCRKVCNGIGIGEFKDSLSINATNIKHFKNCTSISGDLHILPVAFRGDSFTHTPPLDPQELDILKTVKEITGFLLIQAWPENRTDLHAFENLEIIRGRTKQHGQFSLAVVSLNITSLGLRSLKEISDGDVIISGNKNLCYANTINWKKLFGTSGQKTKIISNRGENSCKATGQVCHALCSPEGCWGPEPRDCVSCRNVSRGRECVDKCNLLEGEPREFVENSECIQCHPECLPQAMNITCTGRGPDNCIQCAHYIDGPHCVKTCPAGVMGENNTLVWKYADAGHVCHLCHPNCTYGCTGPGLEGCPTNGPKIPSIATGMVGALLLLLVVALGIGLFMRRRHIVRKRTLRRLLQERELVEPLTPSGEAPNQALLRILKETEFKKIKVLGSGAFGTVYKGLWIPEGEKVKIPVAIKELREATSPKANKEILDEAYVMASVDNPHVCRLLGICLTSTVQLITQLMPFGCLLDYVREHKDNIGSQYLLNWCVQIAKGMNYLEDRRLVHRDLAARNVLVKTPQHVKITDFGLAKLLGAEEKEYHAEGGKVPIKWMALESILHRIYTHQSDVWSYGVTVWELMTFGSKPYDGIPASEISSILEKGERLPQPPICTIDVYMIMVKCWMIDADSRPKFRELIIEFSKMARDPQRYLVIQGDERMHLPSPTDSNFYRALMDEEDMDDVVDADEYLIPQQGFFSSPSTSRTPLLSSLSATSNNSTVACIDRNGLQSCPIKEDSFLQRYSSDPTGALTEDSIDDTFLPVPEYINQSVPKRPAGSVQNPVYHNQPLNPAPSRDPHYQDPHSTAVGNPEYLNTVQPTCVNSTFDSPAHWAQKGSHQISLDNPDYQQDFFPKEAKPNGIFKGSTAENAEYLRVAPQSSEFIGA
Chain of Vascular endothelial growth factor receptor 3 (P35916 whole entry): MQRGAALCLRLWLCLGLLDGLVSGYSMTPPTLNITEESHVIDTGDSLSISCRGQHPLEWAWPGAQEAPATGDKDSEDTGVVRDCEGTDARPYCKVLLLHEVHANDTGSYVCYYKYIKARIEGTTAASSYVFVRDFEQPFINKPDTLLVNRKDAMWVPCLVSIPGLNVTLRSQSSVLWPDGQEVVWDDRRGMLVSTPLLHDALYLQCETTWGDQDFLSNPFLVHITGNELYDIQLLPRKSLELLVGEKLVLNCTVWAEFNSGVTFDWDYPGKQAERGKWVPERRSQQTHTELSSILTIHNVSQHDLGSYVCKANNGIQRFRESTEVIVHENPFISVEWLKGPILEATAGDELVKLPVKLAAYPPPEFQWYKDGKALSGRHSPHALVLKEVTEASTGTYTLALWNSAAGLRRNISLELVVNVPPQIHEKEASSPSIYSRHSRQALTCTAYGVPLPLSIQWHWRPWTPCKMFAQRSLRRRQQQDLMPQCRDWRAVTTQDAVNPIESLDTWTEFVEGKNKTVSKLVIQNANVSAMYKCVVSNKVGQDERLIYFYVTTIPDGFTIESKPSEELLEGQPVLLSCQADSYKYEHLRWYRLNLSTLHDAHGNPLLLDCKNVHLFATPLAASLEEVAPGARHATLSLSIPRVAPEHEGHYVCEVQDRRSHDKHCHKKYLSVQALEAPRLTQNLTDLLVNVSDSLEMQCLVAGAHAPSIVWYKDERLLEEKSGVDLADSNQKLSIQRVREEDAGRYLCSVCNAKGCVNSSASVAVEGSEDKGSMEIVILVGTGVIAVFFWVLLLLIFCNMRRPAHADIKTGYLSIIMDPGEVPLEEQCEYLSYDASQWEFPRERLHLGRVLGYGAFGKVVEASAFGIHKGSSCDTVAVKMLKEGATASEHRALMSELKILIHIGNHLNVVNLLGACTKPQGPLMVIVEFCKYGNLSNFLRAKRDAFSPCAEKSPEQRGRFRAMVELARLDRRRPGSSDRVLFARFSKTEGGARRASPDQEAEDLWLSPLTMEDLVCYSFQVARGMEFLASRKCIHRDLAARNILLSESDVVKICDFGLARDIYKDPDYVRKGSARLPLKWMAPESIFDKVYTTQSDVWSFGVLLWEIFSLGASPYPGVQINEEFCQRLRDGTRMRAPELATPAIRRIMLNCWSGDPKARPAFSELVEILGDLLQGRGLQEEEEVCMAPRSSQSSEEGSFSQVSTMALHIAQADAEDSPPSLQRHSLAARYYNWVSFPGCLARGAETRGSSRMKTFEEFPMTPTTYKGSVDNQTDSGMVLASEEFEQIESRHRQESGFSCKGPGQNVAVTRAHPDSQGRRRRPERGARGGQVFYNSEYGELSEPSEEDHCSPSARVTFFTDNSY
Chain of Mitogen-activated protein kinase 14 (Q16539 whole entry): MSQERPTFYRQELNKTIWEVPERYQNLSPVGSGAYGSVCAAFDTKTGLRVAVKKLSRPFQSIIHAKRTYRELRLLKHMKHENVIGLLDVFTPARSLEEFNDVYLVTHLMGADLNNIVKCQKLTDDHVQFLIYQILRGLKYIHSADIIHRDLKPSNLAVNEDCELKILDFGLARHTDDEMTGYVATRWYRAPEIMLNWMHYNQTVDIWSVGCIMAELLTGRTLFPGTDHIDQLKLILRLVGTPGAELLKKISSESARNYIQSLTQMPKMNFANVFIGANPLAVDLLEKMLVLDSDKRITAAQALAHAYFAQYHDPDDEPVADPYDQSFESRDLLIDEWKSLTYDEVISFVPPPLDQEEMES

| Structure (SMILES) | IC50 [1] [nM] | IC50 (HCT-116) [nM] | other results |
| --- | --- | --- | --- |
| COc1cc2ncn(-c3cc(OCc4ccc(S(C)(=O)=O)cc4)c(C(N)=O)s3)c2cc1OC | 75 | > 30000 |  |
| COc1cc2ncn(-c3cc(OCc4ccccc4C(F)(F)F)c(C#N)s3)c2cc1OC | 700 |  |  |
| COc1cc2ncn(-c3cc(OCC4CCCC4)c(C(N)=O)s3)c2cc1OC | 34 | 3380 |  |
| COc1cc2ncn(-c3cc(OCc4ccccc4C#N)c(C(N)=O)s3)c2cc1OC | 6 | 2630 |  |
| COc1cc2ncn(-c3cc(OCc4ccccc4OC(F)(F)F)c(C(N)=O)s3)c2cc1OC | 5 | 1150 |  |
| COc1cc2ncn(-c3cc(OCc4ccccc4C(F)(F)F)c(C(=O)O)s3)c2cc1OC |  | 7660 |  |
| COc1cc2ncn(-c3cc(OCc4ccccc4S(C)(=O)=O)c(C(N)=O)s3)c2cc1OC | 31 | 5430 |  |
| COc1cc2ncn(-c3cc(OCc4cccc(N(C)C)c4)c(C(N)=O)s3)c2cc1OC | 31 | 3470 |  |
| COc1cc2ncn(-c3cc(OCc4ccncc4)c(C(N)=O)s3)c2cc1OC | 130 | 21000 |  |
| COc1cc2ncn(-c3cc(OCc4ccnc(Br)c4)c(C(N)=O)s3)c2cc1OC | 14 | 1770 |  |
| COc1cc2ncn(-c3cc(OCc4cccc(N)c4)c(C(N)=O)s3)c2cc1OC | 21 | 2270 |  |
| COc1cc2ncn(-c3cc(OCc4ccsc4)c(C(N)=O)s3)c2cc1OC | 17 | 1520 |  |
| COc1cc2ncn(-c3cc(OCc4sccc4Cl)c(C(N)=O)s3)c2cc1OC | 2 | 1480 |  |
| COc1cc2ncn(-c3cc(OCc4ccccc4C(F)(F)F)c(C(N)=S)s3)c2cc1OC | 6 | > 30000 |  |
| COc1cc2ncn(-c3cc(OCc4ccco4)c(C(N)=O)s3)c2cc1OC | 27 | > 25000 |  |
| COc1cc2ncn(-c3cc(OCc4cccc(C#N)c4)c(C(N)=O)s3)c2cc1OC | 99 | > 30000 |  |
| COc1ccc(COc2cc(-n3cnc4cc(OC)c(OC)cc43)sc2C(N)=O)cc1 | 13 | 12100 |  |
| COc1cc2ncn(-c3cc(OCCCc4ccccc4)c(C(N)=O)s3)c2cc1OC |  | 7750 |  |
| COc1cc2ncn(-c3cc(OCc4ccoc4)c(C(N)=O)s3)c2cc1OC | 190 | 19000 |  |
| COc1cc2ncn(-c3cc(OCC4CCCCC4)c(C(N)=O)s3)c2cc1OC |  | 3090 |  |
| COc1cc2ncn(-c3cc(OCc4ccccc4C(F)(F)F)c(-c4nnn[nH]4)s3)c2cc1OC |  | > 30000 |  |
| COc1cc2ncn(-c3cc(OCCc4ccccc4)c(C(N)=O)s3)c2cc1OC [GSK-204925A] |  | 24100 |  |
| COc1cc2ncn(-c3cc(OCc4cccs4)c(C(N)=O)s3)c2cc1OC [GSK-312948A] | 11 | 1540 |  |
| COC(=O)c1sc(-n2cnc3cc(OC)c(OC)cc32)cc1OCc1ccccc1C(F)(F)F [GSK-1030058A] | > 1000 |  |  |
| COc1cc2ncn(-c3cc(OCc4ccccc4C(F)(F)F)c(C(C)=O)s3)c2cc1OC [GSK-1030059A] | 85 |  |  |
| CNC(=O)c1sc(-n2cnc3cc(OC)c(OC)cc32)cc1OCc1ccccc1C(F)(F)F [GSK-1030061A] | > 1000 |  |  |
| COc1cc2ncn(-c3cc(OCc4ccccc4C(F)(F)F)c(C(=O)N(C)C)s3)c2cc1OC [GSK-1030062A] | > 1000 |  |  |
| COc1cc2ncn(-c3cc(OCc4ccccc4C(F)(F)F)c(C(N)=O)s3)c2cc1OC [GW843682X] | 2 | 699 | bioavailability [2]: 14%; IC50 (NCI-H460): 380 nM; IC50 [3]: 92 nM; IC50 (MCF7): 558 nM; Vd [4]: 1.5 L/kg; IC50 [5]: > 48 µM; AUC [6]: 489 ng·h/mL; IC50 (NCI-N87): 601 nM; IC50 (RKO): 398 nM; IC50 [7]: > 15 µM; IC50 (HN5): 678 nM; IC50 [8]: > 30 µM; IC50 (A549): 411 nM; IC50 [9]: > 15 µM; clearance [10]: 47.4 mL/min/kg; IC50 (PC-3): 6.82 µM |

Continued, in another order:

| IC50 [1] [nM] | IC50 (HCT-116) [nM] | Structure (SMILES) | other results |
| --- | --- | --- | --- |
| 22 |  | NC(=O)c1sc(-n2cnc3ccccc32)cc1OCc1cccc(Cl)c1 |  |
| 12 |  | Cc1cccc(COc2cc(-n3cnc4ccccc43)sc2C(N)=O)c1 |  |
| 70 |  | Cc1ccc(COc2cc(-n3cnc4ccccc43)sc2C(N)=O)cc1 |  |
| 2 | 926 | COc1cc2ncn(-c3cc(OCc4ccccc4Br)c(C(N)=O)s3)c2cc1OC |  |
| 8 | 2110 | COc1ccccc1COc1cc(-n2cnc3cc(OC)c(OC)cc32)sc1C(N)=O |  |
| 35 |  | COc1ccc(COc2cc(-n3cnc4ccccc43)sc2C(N)=O)cc1 |  |
| 12 |  | NC(=O)c1sc(-n2cnc3ccccc32)cc1OCc1ccccc1Cl |  |
| 2 | 1230 | COc1ccc2ncn(-c3cc(OCc4ccccc4C(F)(F)F)c(C(N)=O)s3)c2c1 |  |
| 12 |  | COc1ccccc1COc1cc(-n2cnc3ccccc32)sc1C(N)=O |  |
| 12 | 1090 | COc1cc2ncn(-c3cc(OCc4ccccc4)c(C(N)=O)s3)c2cc1OC |  |
| 100 |  | NC(=O)c1sc(-n2cnc3ccccc32)cc1OCc1ccc(Cl)cc1 |  |
| 21 | > 28000 | Cc1ccccc1COc1cc(-n2cnc3cc(Cl)ccc32)sc1C(N)=O |  |
| 61 |  | NC(=O)c1sc(-n2cnc3ccccc32)cc1OCc1ccccc1 |  |
| 14 |  | NC(=O)c1sc(-n2cnc3ccccc32)cc1OCc1ccccc1F |  |
| 17 | 2640 | COc1cc2ncn(-c3cc(OCc4ccccc4C(C)=O)c(C(N)=O)s3)c2cc1OC |  |
| 12 | 2960 | CS(=O)(=O)c1ccc2ncn(-c3cc(OCc4ccccc4C(F)(F)F)c(C(N)=O)s3)c2c1 |  |
| 8 | 2700 | COc1ccc2c(c1)ncn2-c1cc(OCc2ccccc2C(F)(F)F)c(C(N)=O)s1 |  |
| 12 |  | Cc1ccccc1COc1cc(-n2cnc3ccccc32)sc1C(N)=O |  |
| 4 | 1690 | Cc1ccccc1COc1cc(-n2cnc3ccc(Cl)cc32)sc1C(N)=O |  |
| 250 | > 30000 | CS(=O)(=O)c1ccc2c(c1)ncn2-c1cc(OCc2ccccc2C(F)(F)F)c(C(N)=O)s1 |  |
| 11 |  | NC(=O)c1sc(-n2cnc3ccccc32)cc1OCc1ccccc1Br [GSK-1023156A] |  |
| 28 |  | COc1cccc(COc2cc(-n3cnc4ccccc43)sc2C(N)=O)c1 [GW804482X] |  |
| 2 | 999 | COc1cc2ncn(-c3cc(OCc4ccccc4Cl)c(C(N)=O)s3)c2cc1OC [GW852849X] |  |
| 9 | 3590 | NC(=O)c1sc(-n2cnc3ccc(C(F)(F)F)cc32)cc1OCc1ccccc1Br [GW853606X] |  |
| 300 | > 30000 | NC(=O)c1sc(-n2cnc3cc(C(F)(F)F)ccc32)cc1OCc1ccccc1Br [GW853609X] |  |
